The values that follow come from paper PMC3138742 (PLoS ONE, 2011).

One data set addresses AUR A (Homo sapiens, UniProt O14965). Particulars: cell-free. The procedure:
(§1) The tyrosine kinase activities were determined using enzyme-linked immunosorbant assay (ELISA). The serine/threonine kinase activities were detected by Caliper Mobility Shift Assay on EZ Reader (Caliper Life Sciences, MA) according to the instruction.
(§2) The kinase domain of EGFR, ErbB-2, IGF1R, VEGFR2, FGFR1, PDGFRα, c-Src, c-Met, RON, c-Kit, EphA2 and EphB2 were expressed using the Bac-to-Bac^TM baculovirus expression system (Invitrogen, Carlsbad, CA, USA) and purified on Ni-NTA columns (QIAGEN Inc., Valencia, CA, USA). VEGFR1, PDGFRβ and c-Abl were purchased from Upstate Biotechnology Inc. (Charlottesville, Virginia, USA). […] EGF was purchased from R&D, Minneapolis, […]. Poly(Glu-Tyr)(4:1), the substrate of tyrosine kinase, was from Sigma-Aldrich Corp. St. Louis, MO, USA.

A further data set has as its target p70S6K (Homo sapiens, UniProt P23443). The conditions noted are these: cell-free. The procedure:
as §1, §2

The next data set has as its target Pim2 (Homo sapiens, UniProt Q9P1W9). Particulars: Pim2, cell-free. The procedure:
as §1, §2

Another data set has as its target AKT1 (Homo sapiens, UniProt P31749). The conditions noted are these: AKT1, cell-free. The procedure:
as §1, §2

A further data set has as its target GSK3b (Homo sapiens, UniProt P49841). The conditions noted are these: cell-free. The procedure:
as §1, §2

A short description of data set [1]: Pharmacokinetics after single oral dose. Particulars: dog, in vivo; dogs, single oral dose 90 mg/kg; unpublished data.
The nature of data set [2]: Body weights in FVB-2/N^neu transgenic mouse study. The class given is in vivo. Particulars: FVB-2/N^neu mice, oral twice daily for 3 wk. An excerpt:
Thirty eight- to forty four-week-old female FVB/N^neu mice were obtained from Shanghai Laboratory Animal Center. The animals were housed under specific pathogen-free conditions.

Data set [3] in a line: Body weights in xenograft studies. The format is in vivo. Particulars: nude mice, xenograft models, p.o. twice daily. The procedure: (§3) The mice were housed and maintained under specific-pathogen free (SPF) conditions. All animal procedures were performed according to the protocol approved by the Institutional Animal Care and Use Committee at Shanghai Institute of Materia Medica, Chinese Academy of Sciences (SIMM-AE-DJ-2010-01). Under sterile conditions, well-developed tumors were cut into 1-mm^3 fragments and transplanted s.c. into the right flank of nude mice using a trocar. When the tumor reached a volume reached 100 to 200 mm^3, the mice were randomly assigned into control and treatment groups. […] The sizes of the tumors were measured twice per week using microcalipers. The tumor volume (V) was calculated as follows: V = (length×width^2)/2. The body weights of the mice were observed simultaneously.

In data set [4] the test system is phosphorylation of EGFR and downstream pathways in NCI-H1975 cells. Put plainly: Western blot of EGF-induced phosphorylation. The class given is cell-based, human. The procedure:
as §1
(§4) Cell viability was determined using sulforhodamine B assay. IC50 values were determined based on the results of three independent experiments. […] Whole-cell lysates were assayed for total EGFR and phosphorylation of EGFR by immunoblotting. […] Cell viability was determined using sulforhodamine B assay.
Background: A western blot detects proteins with antibodies after separation by electrophoresis.

The target in a further data set is T1, EGFR T790M/L858R (Homo sapiens, UniProt P00533, L858R/T790M).
T1 construct: purchased Cell Signaling Technology Inc
T1 sequence (P00533 25-1210 T790M/L858R): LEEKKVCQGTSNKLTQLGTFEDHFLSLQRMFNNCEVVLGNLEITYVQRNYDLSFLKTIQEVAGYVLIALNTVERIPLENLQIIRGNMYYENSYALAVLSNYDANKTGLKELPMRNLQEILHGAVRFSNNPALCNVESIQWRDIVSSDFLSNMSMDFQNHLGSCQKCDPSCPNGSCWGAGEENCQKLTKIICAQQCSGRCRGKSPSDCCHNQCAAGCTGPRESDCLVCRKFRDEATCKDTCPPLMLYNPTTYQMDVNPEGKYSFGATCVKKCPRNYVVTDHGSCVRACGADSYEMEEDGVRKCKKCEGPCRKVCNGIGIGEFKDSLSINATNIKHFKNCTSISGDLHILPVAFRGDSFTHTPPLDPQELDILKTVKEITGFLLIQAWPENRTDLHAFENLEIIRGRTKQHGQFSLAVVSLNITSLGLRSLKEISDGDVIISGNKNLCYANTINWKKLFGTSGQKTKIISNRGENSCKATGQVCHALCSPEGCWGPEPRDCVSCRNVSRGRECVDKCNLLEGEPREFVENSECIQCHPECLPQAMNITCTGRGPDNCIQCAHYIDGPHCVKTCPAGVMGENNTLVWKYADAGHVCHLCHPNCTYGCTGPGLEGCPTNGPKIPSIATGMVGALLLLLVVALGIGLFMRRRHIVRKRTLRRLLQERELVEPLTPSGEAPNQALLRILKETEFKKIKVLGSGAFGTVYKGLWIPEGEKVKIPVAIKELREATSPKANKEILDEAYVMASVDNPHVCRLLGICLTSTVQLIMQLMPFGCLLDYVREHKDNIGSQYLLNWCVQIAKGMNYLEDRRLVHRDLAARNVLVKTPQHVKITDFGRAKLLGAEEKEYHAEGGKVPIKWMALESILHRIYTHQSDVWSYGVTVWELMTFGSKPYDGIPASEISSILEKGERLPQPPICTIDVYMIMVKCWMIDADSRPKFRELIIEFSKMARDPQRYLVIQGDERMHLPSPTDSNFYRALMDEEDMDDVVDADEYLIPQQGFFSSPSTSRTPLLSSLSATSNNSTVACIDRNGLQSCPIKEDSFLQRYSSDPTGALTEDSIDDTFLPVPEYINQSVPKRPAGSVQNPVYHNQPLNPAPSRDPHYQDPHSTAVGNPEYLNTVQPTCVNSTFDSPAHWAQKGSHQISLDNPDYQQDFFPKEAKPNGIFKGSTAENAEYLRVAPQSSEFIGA
The data set is described as follows: In vitro tyrosine kinase assay (ELISA). The class given is biochemical. The conditions noted are these: EGFR T790M/L858R double mutant, cell-free; means ± SD. The procedure:
as §1, §2
The tyrosine kinase activities were determined in 96-well ELISA plates (Corning, NY, USA) precoated with 20 μg/mL Poly (Glu,Tyr)4:1. First, 80 μL of 5 μM ATP solution diluted in kinase reaction buffer (50 mM HEPES pH 7.4, 20 mM MgCl2, 0.1 mM MnCl2, 0.2 mM Na3VO4, 1 mM DTT) was added to each well. […] Subsequently, the kinase reaction was initiated by the addition of purified tyrosine kinase proteins diluted in 10 μL of kinase reaction buffer solution. Experiments at each concentration were performed in duplicate. […]

The test system of data set [5] is EGFR and ErbB2 phosphorylation in SK-OV-3 xenograft tumors. The data set is described as follows: Pharmacodynamic effect in tumor extracts (Western blot). The format is in vivo, nude mice. The conditions noted are these: SK-OV-3 tumors, single dose 100 mg/kg. The procedure:
Tumors were harvested at indicated times (n = 3 per time point) after treatment, immediately frozen in liquid nitrogen, and then homogenized in 500 µL protein extraction solutions (SBS Genetech, Shanghai, China). Tumor extracts were subjected to SDS-PAGE followed by immunoblotting.
Body weights of the nude mice were measured concurrently (B). […] Tumors were harvested at the indicated times after treatment and immediately frozen in liquid nitrogen. Western blot analysis was performed to determine the levels of phosphorylated EGFR and ErbB2.

Data set [6] concerns EGFR phosphorylation in NIH3T3-EGFR T790M/L858R cells. The data set is described as follows: Western blot of EGFR phosphorylation. The class given is cell-based. The conditions noted are these: 6 h, immunoblotting. The procedure: as §4
In a further data set the test system is A549 cells. The data set is described as follows: Anchorage-independent growth on soft agar. Particulars: two weeks. The format is cell-based, human.
For the next data set, the system named is SK-OV-3 xenograft. The data set is described as follows: Human tumor xenograft model, tumor growth. The class given is in vivo. The conditions noted are these: nude mice, p.o. twice daily. The procedure:
as §3
On the technique in general: Xenograft models place foreign cells or tissue in a host animal.

The next data set concerns Calu-3 xenograft. The data set is described as follows: Human tumor xenograft model, tumor growth. The format is in vivo. Particulars: nude mice, p.o. twice daily. The procedure:
as §3

A further data set has as its system A549 xenograft. Put plainly: Human tumor xenograft model, tumor growth. The class given is in vivo. The conditions noted are these: nude mice, p.o. twice daily. The procedure:
as §3

Another data set deals with HO-8910 xenograft. Put plainly: Human tumor xenograft model, tumor growth. Particulars: nude mice, p.o. twice daily. The format is in vivo. The procedure:
as §3

Data set [7] has as its system SK-OV-3 cells transfected with EGFR siRNA. Put plainly: SRB assay after EGFR siRNA transfection. The class given is cell-based, human. The conditions noted are these: SK-OV-3, two independent pairs of EGFR siRNAs. An excerpt: Small interfering RNA (siRNA) against EGFR or ErbB2, as well as control siRNA, were designed and synthesized by Shanghai GenePharma Co. Ltd. One pair of ErbB2 siRNA (sequence: 5′ […] 3′), and two pairs of EGFR siRNA (#1 sequence: 5′ […] 3′; #2 sequence: 5′ […] 3′) were applied in this study. Different kind of siRNA (final concentration: 50 nmol/L) was transfected to SK-OV-3 cells with oligofectamine reagent (Invitrogen) according to the manufacturer's instruction.

SMILES strings stand for the structures. “Also recorded” adds a separate entry of the source.

GSK3b, sequence (P49841 whole entry): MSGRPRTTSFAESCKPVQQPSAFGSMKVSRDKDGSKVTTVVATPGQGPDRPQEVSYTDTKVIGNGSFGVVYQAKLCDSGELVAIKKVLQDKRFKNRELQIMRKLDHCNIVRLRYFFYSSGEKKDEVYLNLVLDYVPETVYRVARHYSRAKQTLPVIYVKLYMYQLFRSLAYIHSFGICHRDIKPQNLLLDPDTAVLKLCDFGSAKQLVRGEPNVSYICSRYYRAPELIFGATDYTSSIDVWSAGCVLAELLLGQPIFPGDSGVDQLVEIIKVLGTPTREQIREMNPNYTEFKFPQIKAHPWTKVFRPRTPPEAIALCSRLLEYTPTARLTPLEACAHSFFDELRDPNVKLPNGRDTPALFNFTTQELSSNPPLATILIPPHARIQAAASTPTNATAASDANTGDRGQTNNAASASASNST
Pim2, sequence (Q9P1W9 whole entry): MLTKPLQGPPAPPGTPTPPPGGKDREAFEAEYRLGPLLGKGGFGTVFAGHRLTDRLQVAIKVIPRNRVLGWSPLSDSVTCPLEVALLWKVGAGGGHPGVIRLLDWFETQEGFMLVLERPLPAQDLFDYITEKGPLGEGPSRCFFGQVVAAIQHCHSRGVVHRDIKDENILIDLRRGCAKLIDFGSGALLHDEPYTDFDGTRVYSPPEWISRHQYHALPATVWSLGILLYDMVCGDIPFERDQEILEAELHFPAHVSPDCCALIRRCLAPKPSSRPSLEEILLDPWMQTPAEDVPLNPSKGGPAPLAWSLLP
p70S6K, sequence (P23443 whole entry): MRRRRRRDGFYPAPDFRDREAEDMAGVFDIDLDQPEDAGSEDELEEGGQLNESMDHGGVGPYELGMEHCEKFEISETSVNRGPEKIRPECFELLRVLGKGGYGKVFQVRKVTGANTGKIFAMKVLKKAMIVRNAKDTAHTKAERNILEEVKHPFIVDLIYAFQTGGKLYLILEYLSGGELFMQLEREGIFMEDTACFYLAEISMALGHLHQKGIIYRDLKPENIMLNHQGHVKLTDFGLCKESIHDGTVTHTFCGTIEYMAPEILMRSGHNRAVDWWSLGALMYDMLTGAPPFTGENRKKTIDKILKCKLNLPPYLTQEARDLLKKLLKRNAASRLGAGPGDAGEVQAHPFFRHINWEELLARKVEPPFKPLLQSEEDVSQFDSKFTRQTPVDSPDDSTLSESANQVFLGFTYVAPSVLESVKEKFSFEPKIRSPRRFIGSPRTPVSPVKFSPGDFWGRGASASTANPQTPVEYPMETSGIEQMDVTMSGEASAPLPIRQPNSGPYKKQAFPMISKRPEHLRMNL
AUR A, sequence (O14965 whole entry): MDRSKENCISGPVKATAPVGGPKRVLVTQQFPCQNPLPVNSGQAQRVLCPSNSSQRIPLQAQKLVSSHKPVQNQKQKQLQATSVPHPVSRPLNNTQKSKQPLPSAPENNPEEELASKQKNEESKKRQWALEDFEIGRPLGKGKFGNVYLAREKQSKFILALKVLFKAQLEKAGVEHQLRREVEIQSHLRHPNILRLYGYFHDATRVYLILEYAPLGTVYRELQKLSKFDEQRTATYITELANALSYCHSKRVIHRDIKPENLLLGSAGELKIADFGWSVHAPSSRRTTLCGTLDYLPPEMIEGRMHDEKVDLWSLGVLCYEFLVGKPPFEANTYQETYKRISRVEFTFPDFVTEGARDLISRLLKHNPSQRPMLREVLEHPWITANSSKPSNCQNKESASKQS
AKT1, sequence (P31749 whole entry): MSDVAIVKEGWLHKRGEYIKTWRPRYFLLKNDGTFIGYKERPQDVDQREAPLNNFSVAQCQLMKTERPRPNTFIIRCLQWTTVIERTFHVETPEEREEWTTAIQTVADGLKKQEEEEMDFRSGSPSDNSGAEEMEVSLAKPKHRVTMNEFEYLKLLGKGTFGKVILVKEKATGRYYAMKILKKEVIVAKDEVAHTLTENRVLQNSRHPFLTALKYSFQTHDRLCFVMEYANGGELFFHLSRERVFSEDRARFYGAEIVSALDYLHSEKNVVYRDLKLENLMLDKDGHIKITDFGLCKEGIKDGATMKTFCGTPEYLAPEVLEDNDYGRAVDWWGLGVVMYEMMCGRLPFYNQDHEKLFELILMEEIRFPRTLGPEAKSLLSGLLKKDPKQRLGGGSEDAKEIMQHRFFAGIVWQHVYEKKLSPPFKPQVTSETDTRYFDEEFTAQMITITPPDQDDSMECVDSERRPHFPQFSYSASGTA
Procedure for A549 cells: The culture was maintained at 37°C in a 5% CO2 atmosphere for two weeks. The average colony number was calculated and colonies were photographed. […] Anchorage-independent cell transformation assay. Cell transformation was detected in SK-OV-3 and A549 cells, respectively. […] The culture were maintained in a 37°C, 5% CO2 incubator for 1-2 weeks, and the cell colonies were scored using a microscope and the Image-Pro PLUS computer software program (Media Cybernetics, Silver Spring, MD).

In the case of `C=CC(=O)Nc1ccc2ncnc(Nc3ccc(OCc4cccc(F)c4)c(Cl)c3)c2c1` [AST1306], the IC50 is over 10 µM on AUR A; over 10 µM against p70S6K; over 10 µM against Pim2; over 10 µM on AKT1; over 10 µM on GSK3b; 0.012 ± 0.002 µM against EGFR T790M/L858R. The same molecule gave a half-life in data set [1] of under 2.3 h. Also, the “decrease of body weights during treatment” value in data set [2] is “less than 20%”. In addition, the “body weights during treatment” value in data set [3] is listed as “no obvious differences”. In addition, in data set [4], the “inhibition of phosphorylation of EGFR and downstream pathways” value is “blocked phosphorylation of EGFR and downstream pathways”. Also, the “time to evident inhibition of EGFR and ErbB2 activation in tumors” value in [5] is on record as at most 2 h. In data set [6], the “inhibition of EGFR phosphorylation” value is “effectively inhibited EGFR phosphorylation”. In addition, in the data set on A549 cells, the “anchorage-independent growth on soft agar” value was “dramatically inhibit the growth”. The tumor growth entry is “dramatic suppression of tumor growth; also recorded: more efficacious than lapatinib” in the data set on SK-OV-3 xenograft, “dramatic suppression of tumor growth” with Calu-3 xenograft, “only slightly suppressed tumor growth” in the data set on A549 xenograft and “only slightly suppressed tumor growth” with HO-8910 xenograft. In addition, the “tumors after treatment for 7 d” value with SK-OV-3 xenograft (7 d) is recorded as “tumors almost completely disappeared”. In addition, the “antiproliferative activity after EGFR knockdown” value in [7] is “did not significantly affect”.

For orientation: IC50 means the concentration that inhibits the measured activity by half. Higher therefore signals weaker potency in that assay. As usually defined, the half-life is how long it takes for the measured level to halve. Higher therefore signals slow decline.
